Test results: patent US20200276181A1, “THIENOISOQUINOLINES AND THEIR DERIVATIVES FOR TARGETING TUBULIN, CH-TOG, AURORA A KINASE, TPX2, CDK5RAP2 AND/OR ASPM” (VALORBEC, SEC, priority 2017, published 2020)

Columns and labels:
HeLa cells [1] = test: Viability IC50, high-throughput automated analysis (Table 4); type: cell-based; settings: Homo sapiens, 3 population doubling times
Description: (§1) FIG. 1A) is a line graph showing changes in the percentage of viable HFF-1, HeLa, A549 and HCT 116 cells after treatment with a range of C75 concentrations for 3 population doubling times (N=3). […] There were more rounded mitotic cells after C75 treatment in comparison to the control. FIG. 1C) is a line graph showing the percentage of HeLa and HFF1 cells in mitosis after treatment with various concentrations of C75 for 8 hours. The bars indicate standard deviation. FIG. 1D) is a series of images showing cells that were fixed and co-stained for tubulin (microtubules) and DAPI (DNA). Treatment of HeLa cells with 300 nM C75 caused the mitotic spindles to be disorganized, while they were not affected in HFF1 cells. […] The scale bar for the cells is 10 μm. […] FIG. 1F) is a cartoon schematic showing the key features of a metaphase cell.
(§2) The images in FIG. 1B) show fields of view of HeLa cells treated with (dimethyl sulfoxide) DMSO or 500 nM of C75. […] Higher concentrations of C75 caused spindle phenotypes in HFF1 cells, but they were quite different in comparison to HeLa cells (FIG. 1D).

HFF-1 cells [2] = test: as above; type: cell-based; settings: Homo sapiens, 3 population doubling times
Description: as §1, §2

HCT 116 cells = test: as above; type: cell-based; settings: Homo sapiens, 3 population doubling times
Description: as §1, §2

A549 cells [3] = test: as above; type: cell-based; settings: Homo sapiens, 3 population doubling times
Description: as §1, §2

[4] = test system: HeLa cells with lower levels of endogenous ch-TOG (ch-TOG RNAi); test: Spindle phenotypes with ch-TOG RNAi; type: cell-based, human; settings: 200 nM C75 or 20 nM colchicine
Text: FIG. 7B) is a bar graph showing the proportion of phenotypes of the HeLa cells observed in the different conditions listed in 7A) (bipolar spindles in light grey; bipolar spindles with misaligned chromosomes in dark grey; multipolar/fragmented spindles in hatched lines; monopolar spindles in black).

HCT116 cells = test: Spindle phenotypes, fixed cells stained for γ-tubulin and ACA; type: cell-based; settings: 300 nM for 4 hours
Text: (§3) For each condition, 20,000 cells were counted per replicate (N=3). Line graphs (right) were made to better illustrate the relative changes in the cell cycle phases for the different treatments. Bars show standard deviation. The asterisks indicate the first statistically significant change in the G0/G1 and G2/M populations determined by a two-way ANOVA with a post-hoc Tukey's multiple comparisons test using 95% confidence intervals. FIG. 2B) is a line graph showing the percentage of HCT116 (p53−/−) cells, A549 cells, HeLa cells and H1299 cells in mitosis after treatment with various concentrations of C75 for one population doubling time. All of the cell lines show an increase in the proportion of mitotic cells after treatment with 200 nM C75. The bars indicate standard deviation. […] While the mitotic spindles were not dramatically altered by C75 in HFF1 cells, they were monopolar (as shown) or fragmented in the other cell types. […] The mitotic spindles were more strongly fragmented after C75 treatment in these cells vs. the cells in FIG. 2C). FIG. 2E) are images showing fixed HFF1, HeLa, A549 and HCT 116 cells co-stained for γ-tubulin (spindle poles; white) and ACA (centromeres; light grey) 4 hours after treatment with 300 nM C87 (control) or 300 nM C75. Cartoon schematics show examples of the different spindle phenotypes, including bipolar with aligned chromosomes (top), bipolar with misaligned chromosomes (upper middle), multipolar/fragmented (lower middle), or monopolar (bottom), and the proportion of that phenotype is shown in the top right corner of each image. FIG. 2F) is a bar graph showing the proportion of the different spindle phenotypes for HFF1, HeLa, A549 and HCT 116 cells treated as in FIG. 2E) (n=1355; N=3). Bars show standard deviation. […] While mitotic spindles recovered bipolarity after removing nocodazole, they remained multipolar after removing C75. […] FIG. 2J) is a bar graph showing the proportion of cells with monopolar (black), bipolar (dark grey) or multipolar (light grey) spindles. Bars show standard deviation. FIG. 2K) is a series of time-lapse images of a live HeLa cell expressing GFP:tubulin after treatment with C75 as shown in 2G). […] Drugs were not washed out. […]
(§4) C75 was also tested for efficacy in different cancer cell lines. […] To further assess the role of C75 in disrupting spindles, HeLa cells were treated with 300 nM C75 for 4 hours and the spindle phenotypes were analyzed in more detail (FIG. 2E). […] To assess the affect of C75 on centrosomes, HeLa cells were treated with C75 or nocodazole (a drug that causes microtubule depolymerization as a control) for a short period of time (5 minutes), then the drugs were removed and the cells were analyzed for spindle phenotypes (schematic in FIG. 2G). […]

HFF-1 cells [5] = test: as above; type: cell-based; settings: 300 nM for 4 hours
Text: as §3, §4

HeLa cells [6] = test: Viability IC50 of C75 in combination with subthreshold tubulin-targeting drug; type: cell-based, human
Text: Bars show standard deviation. […] The bars indicate standard deviation. […] The bars indicate standard deviation. […] The scale bar for all cells is 10 μm.
Bars show standard deviation. […] The scale bar for all cells is 10 μm. In FIG. 4F), bar graphs show changes in the proportion of HCT 116 cells with the different spindle phenotypes as in FIG. 4D (n=2368; N=3). […] Bars indicate standard deviation.

HeLa cells [7] = test: Spindle phenotypes, fixed cells stained for γ-tubulin and ACA; type: cell-based, human; settings: 300 nM for 4 hours
Text: as §3, §4

A549 cells [8] = test: as above; type: cell-based, human; settings: 300 nM for 4 hours
Text: as §3, §4

Work on `COc1ccc(S(=O)(=O)N2Cc3ccccc3-c3sc(Br)cc32)cc1` [Compound C75] yielded an IC50 (HeLa cells [1]) of 427 nM, an IC50 (HFF-1 cells [2]) of 789 nM and an IC50 (HCT 116 cells) of 431 nM. The IC50 (A549 cells [3]) was 377 nM, the “interaction with ch-TOG RNAi, fragmented spindle phenotype” value [4] was “additive effect” and the “cells with bipolar spindles with misaligned chromosomes” value (“cells … with misaligned chromosomes” below) (HCT116 cells) was 22%. For the same compound, the “cells with monopolar spindles” value (HCT116 cells) was 35%, the “cells with multipolar or fragmented spindles” value (HCT116 cells) was 13% and the “cells with bipolar spindles with aligned chromosomes” value (HFF-1 cells [5]) was 88%. For the same compound, the “lowering of the IC50 of C75 by subthreshold colchicine” value (HeLa cells [6]; + 3 nM colchicine) was about 2 fold, the “reduction of the IC50 of C75 by subthreshold paclitaxel” value (HeLa cells [6]; + 3 nM paclitaxel) was about 2 fold and the “cells … with misaligned chromosomes” value (HeLa cells [7]) was 41%. For the same compound, the “cells with multipolar or fragmented spindles” value (HeLa cells [7]) was 31%, the “cells … with misaligned chromosomes” value (A549 cells [8]) was 17% and the “cells with multipolar or fragmented spindles” value (A549 cells [8]) was 78%.
